The record followed here is patent US12071408B2, “Multi-targeted tyrosine kinase inhibitors effective in antitumor uses” (Shanghai AB PharmaTech Ltd., priority 2021, dated 2024).

For assay [1], the system named is leukemia cell line (K562). Kind of assay: Tumor cell proliferation inhibition (CTG, 72 h). It is filed as cell-based. Conditions: Homo sapiens; K562 cells, class; read-out: K562 activity effect range (IC50).
The subject of assay [2] is bladder cancer cell line (RT112/84). The experiment in a line: Tumor cell proliferation inhibition (CTG, 72 h). Type of assay: cell-based. Conditions: Homo sapiens; RT112/84 cells, class; read-out: RT112/84 range of activity (IC50).
The next assay deals with VEGFR-2 (KDR) (Homo sapiens (Human), UniProt P35968). Kind of assay: Kinase inhibition, Mobility-Shift Assay. It is filed as biochemical. Conditions: class; read-out: KDR activity effect range (IC50).
Sequence of VEGFR-2 (KDR) (P35968 20-1356): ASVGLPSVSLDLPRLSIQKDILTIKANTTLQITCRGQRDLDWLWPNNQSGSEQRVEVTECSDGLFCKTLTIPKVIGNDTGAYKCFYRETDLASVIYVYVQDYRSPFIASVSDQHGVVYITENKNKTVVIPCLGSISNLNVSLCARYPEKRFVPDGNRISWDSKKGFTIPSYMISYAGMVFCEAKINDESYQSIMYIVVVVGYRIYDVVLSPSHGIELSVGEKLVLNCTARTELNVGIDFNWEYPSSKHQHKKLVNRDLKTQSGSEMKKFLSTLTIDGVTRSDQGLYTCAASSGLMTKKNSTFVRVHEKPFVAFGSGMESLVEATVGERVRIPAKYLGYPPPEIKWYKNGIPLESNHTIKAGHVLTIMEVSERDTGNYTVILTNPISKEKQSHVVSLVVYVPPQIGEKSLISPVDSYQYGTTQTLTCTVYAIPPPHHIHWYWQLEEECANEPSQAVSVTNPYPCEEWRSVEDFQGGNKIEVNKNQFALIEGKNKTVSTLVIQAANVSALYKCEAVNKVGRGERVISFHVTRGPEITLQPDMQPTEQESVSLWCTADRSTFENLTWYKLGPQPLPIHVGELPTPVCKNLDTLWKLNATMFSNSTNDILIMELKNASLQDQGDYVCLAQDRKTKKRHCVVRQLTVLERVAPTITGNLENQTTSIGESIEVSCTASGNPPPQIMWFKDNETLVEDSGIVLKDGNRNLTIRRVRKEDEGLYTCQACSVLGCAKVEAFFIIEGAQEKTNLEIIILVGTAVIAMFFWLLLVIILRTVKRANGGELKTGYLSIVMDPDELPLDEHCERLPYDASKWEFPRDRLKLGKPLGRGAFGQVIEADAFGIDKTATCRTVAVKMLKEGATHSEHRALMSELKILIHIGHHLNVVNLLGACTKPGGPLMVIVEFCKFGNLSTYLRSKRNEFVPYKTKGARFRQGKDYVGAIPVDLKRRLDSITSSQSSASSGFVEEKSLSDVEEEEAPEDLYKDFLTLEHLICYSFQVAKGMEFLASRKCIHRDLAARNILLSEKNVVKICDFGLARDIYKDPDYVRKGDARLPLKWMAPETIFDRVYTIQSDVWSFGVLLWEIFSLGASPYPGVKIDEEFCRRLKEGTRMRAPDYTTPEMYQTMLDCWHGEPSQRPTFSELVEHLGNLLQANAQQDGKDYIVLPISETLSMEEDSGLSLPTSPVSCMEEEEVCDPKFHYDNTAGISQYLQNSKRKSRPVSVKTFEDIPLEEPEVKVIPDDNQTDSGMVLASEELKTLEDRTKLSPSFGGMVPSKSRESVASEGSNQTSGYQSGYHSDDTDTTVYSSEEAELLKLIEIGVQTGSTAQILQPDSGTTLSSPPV
The next assay deals with FGFR2 (Homo sapiens (Human), UniProt P21802). Kind of assay: Kinase inhibition, Mobility-Shift Assay. It is filed as biochemical. Conditions: class; read-out: FGFR2 range of activity effects (IC50).
Sequence of FGFR2 (P21802 22-821): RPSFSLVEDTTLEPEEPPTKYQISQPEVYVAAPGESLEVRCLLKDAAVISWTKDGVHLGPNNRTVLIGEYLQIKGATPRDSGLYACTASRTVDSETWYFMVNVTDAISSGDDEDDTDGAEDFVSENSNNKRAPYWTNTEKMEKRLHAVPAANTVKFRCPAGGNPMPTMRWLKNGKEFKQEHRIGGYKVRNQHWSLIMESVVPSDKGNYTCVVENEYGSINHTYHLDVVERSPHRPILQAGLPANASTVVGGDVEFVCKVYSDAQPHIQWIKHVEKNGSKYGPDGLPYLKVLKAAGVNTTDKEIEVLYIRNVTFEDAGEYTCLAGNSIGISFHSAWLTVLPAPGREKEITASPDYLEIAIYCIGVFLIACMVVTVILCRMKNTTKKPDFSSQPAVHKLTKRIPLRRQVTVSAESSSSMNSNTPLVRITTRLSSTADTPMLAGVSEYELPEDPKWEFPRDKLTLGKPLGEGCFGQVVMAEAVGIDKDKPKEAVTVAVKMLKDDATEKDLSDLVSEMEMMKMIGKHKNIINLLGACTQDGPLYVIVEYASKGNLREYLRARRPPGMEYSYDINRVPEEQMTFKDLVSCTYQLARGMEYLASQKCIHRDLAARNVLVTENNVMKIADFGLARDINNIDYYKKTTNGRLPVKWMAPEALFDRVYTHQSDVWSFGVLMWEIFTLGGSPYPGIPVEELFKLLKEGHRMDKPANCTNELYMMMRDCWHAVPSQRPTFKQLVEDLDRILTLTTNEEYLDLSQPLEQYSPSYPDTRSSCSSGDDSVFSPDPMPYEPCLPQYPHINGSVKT
The test system of assay [3] is hepatocellular carcinoma cell line (Hep3B 2.1-7). The experiment in a line: Tumor cell proliferation inhibition (CTG, 72 h). Type of assay: cell-based. To be noted: Homo sapiens; Hep3B 2.1-7 cells, class; read-out: Hep3B 2.1-7 range of activity (IC50).
The target of a further assay is FGFR4 (Homo sapiens (Human), UniProt P22455). The experiment in a line: Kinase inhibition, Mobility-Shift Assay. It is filed as biochemical. Conditions: class; read-out: FGFR4 range of activity effects (IC50).
Sequence of FGFR4 (P22455 22-802): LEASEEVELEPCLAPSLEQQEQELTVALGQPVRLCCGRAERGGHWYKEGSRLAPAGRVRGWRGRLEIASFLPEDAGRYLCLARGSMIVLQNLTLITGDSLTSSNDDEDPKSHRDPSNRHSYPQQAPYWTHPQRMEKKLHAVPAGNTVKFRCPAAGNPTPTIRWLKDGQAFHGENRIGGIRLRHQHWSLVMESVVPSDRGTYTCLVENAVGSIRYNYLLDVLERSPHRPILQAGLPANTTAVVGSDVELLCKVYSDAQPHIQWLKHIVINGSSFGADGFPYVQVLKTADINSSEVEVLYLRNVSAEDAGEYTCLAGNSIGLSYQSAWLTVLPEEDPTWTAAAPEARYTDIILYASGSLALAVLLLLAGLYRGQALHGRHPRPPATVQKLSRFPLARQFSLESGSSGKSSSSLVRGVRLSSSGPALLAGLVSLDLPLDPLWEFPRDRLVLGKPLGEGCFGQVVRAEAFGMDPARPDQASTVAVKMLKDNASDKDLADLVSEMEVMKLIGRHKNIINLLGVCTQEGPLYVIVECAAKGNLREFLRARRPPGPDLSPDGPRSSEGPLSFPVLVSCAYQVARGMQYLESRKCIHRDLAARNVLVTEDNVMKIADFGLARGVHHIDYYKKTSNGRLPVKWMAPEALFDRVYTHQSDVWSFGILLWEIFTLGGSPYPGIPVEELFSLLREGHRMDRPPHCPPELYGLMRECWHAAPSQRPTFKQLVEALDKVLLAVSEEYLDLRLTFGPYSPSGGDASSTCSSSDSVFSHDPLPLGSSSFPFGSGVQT
For a further assay, the target named is C-MET (Homo sapiens (Human), UniProt P08581). Kind of assay: Kinase inhibition, Mobility-Shift Assay. It is filed as biochemical. To be noted: class; read-out: C-MET range of activity (IC50).
Sequence of C-MET (P08581 25-1390): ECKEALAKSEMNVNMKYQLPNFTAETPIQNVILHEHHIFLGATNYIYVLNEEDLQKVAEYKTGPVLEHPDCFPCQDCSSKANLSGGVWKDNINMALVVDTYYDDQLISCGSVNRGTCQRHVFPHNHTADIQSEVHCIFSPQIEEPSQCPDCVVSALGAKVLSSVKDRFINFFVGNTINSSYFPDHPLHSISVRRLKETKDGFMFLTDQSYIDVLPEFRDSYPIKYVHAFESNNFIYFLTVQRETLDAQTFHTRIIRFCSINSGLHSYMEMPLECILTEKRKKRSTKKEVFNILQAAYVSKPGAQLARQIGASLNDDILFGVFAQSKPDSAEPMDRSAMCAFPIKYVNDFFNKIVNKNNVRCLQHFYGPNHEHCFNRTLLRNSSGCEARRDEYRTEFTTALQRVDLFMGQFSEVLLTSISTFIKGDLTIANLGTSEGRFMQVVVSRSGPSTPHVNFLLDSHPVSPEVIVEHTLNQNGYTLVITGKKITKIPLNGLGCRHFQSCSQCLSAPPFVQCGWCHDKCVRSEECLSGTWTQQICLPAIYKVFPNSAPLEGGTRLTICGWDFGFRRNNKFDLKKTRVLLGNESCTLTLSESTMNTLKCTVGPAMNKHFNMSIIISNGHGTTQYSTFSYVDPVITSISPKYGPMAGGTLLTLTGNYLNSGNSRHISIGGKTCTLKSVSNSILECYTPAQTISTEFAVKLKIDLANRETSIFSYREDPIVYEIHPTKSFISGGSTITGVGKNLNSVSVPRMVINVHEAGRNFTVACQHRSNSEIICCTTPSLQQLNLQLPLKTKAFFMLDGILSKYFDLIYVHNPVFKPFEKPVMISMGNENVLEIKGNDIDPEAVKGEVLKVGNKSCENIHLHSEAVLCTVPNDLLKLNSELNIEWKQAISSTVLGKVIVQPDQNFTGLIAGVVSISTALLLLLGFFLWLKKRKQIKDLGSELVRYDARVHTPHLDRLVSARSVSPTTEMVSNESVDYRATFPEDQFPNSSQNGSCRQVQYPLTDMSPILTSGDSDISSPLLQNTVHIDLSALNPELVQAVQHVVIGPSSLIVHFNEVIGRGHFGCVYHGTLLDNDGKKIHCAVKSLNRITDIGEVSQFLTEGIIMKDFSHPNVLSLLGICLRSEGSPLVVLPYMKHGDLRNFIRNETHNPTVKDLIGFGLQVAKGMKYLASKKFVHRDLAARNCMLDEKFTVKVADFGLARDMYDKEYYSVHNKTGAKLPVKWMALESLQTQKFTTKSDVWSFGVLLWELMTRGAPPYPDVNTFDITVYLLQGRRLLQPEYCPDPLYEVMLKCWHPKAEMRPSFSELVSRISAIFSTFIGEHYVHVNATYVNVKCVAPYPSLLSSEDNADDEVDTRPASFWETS
The test system of assay [4] is cervical cancer cell line (Hela). Kind of assay: Tumor cell proliferation inhibition (CTG, 72 h). Type of assay: cell-based. To be noted: Homo sapiens; Hela cells, class; read-out: Hela activity effect range (IC50).
For assay [5], the system named is thyroid cancer cell line (TT). Kind of assay: Tumor cell proliferation inhibition (CTG, 72 h). Type of assay: cell-based. To be noted: Homo sapiens; TT cells, class; read-out: TT range of activity (IC50).
The target in a further assay is EGFR (Homo sapiens (Human), UniProt P00533). The experiment in a line: Kinase inhibition, Mobility-Shift Assay. It is filed as biochemical. To be noted: class; read-out: EGFR range of activity (IC50).

Molecules are shown by their SMILES. pIC50: −log10 of the molar value. A value given as a limit tells only on which side of the number the result lay.

Regarding `COc1cc2nccc(Oc3c(F)cc(NC(=O)NC4(C)CC4)c(Cl)c3F)c2cc1C(N)=O` [III-22], the pIC50 in assay [1] is less than 5.00; in assay [2] it was less than 6.00; on VEGFR-2 (KDR), less than 8.00; at FGFR2, less than 7.00; in [3] it was less than 5.30; on FGFR4, less than 7.00. The pIC50 is less than 7.00 on C-MET, less than 5.00 in assay [4], less than 5.00 in [5] and less than 7.00 at EGFR.
On to `COc1cc2nccc(Oc3c(F)c(F)c(NC(=O)NC4CC4)c(N(C)C)c3F)c2cc1C(N)=O` [III-50], for which the pIC50 in assay [1] was less than 5.00; in assay [2], less than 6.00; at VEGFR-2 (KDR), less than 8.00; on FGFR2 it was less than 7.00; in [3] it was less than 5.30; at FGFR4 it was less than 7.00. Further, the pIC50 at C-MET is less than 7.00; in assay [4], less than 5.00; in assay [5], less than 5.00; at EGFR it was less than 7.00.
Regarding `COc1cc2nccc(Oc3c(F)cc(NC(=O)NC4CC4)c(Cl)c3OCC(F)F)c2cc1C(N)=O` [III-44], the pIC50 in [1] was less than 5.00; in assay [2], less than 6.00; at VEGFR-2 (KDR), less than 8.00; on FGFR2, less than 7.00; in [3] it was less than 5.30; on FGFR4 it was less than 7.00. Further, the pIC50 is less than 7.00 at C-MET, less than 5.00 in assay [4], less than 5.00 in assay [5] and less than 7.00 at EGFR.
Regarding `COc1cc2nccc(Oc3c(F)cc(NC(=O)NC(C)(C)CO)c(Cl)c3F)c2cc1C(N)=O` [III-11], the pIC50 in assay [1] is less than 5.00; in assay [2], less than 6.00; at VEGFR-2 (KDR), less than 8.00; at FGFR2, less than 7.00; in assay [3], less than 5.30; at FGFR4, less than 7.00. Besides, the pIC50 on C-MET is less than 7.00; in assay [4] it was less than 5.00; in assay [5] it was less than 5.00; at EGFR, less than 7.00.
For the compound `COc1cc2nccc(Oc3c(F)cc(NC(=O)NC(C)C(F)(F)F)c(Cl)c3F)c2cc1C(N)=O` (stereo not drawn) [III-38], the pIC50 in [1] was less than 5.00; in assay [2], less than 6.00; at VEGFR-2 (KDR), less than 8.00; on FGFR2, less than 7.00; in [3] it was less than 5.30; on FGFR4, less than 7.00. The pIC50 at C-MET was less than 7.00; in assay [4] it was less than 5.00; in assay [5], less than 5.00; at EGFR, less than 7.00.
Take `COc1cc2nccc(Oc3c(F)cc(NC(=O)NC4CC4)c(Cl)c3OC)c2cc1C(N)=O` [III-41]: the pIC50 in assay [1] is less than 5.00; in [2], less than 6.00; on VEGFR-2 (KDR), less than 8.00; on FGFR2 it was less than 7.00; in assay [3], less than 5.30; on FGFR4, less than 7.00. Moreover, the pIC50 at C-MET is less than 7.00; in [4], less than 5.00; in [5], less than 5.00; on EGFR, less than 7.00.
For the compound `COc1cc2nccc(Oc3c(F)cc(NC(=O)NC4CC4)c(Cl)c3OC(C)C)c2cc1C(N)=O` [III-42], the pIC50 is less than 5.00 in [1]; less than 6.00 in assay [2]; less than 8.00 on VEGFR-2 (KDR); less than 7.00 on FGFR2; less than 5.30 in [3]; less than 7.00 on FGFR4. Further, the pIC50 on C-MET is less than 7.00; in assay [4] it was less than 5.00; in assay [5] it was less than 5.00; on EGFR, less than 7.00.
As to `COc1cc2nccc(Oc3c(F)cc(NC(=O)NC4CC4(F)F)c(F)c3F)c2cc1C(N)=O` (stereo not drawn) [III-23], the pIC50 in [1] was less than 5.00; in assay [2], less than 6.00; on VEGFR-2 (KDR) it was less than 8.00; on FGFR2, less than 7.00; in assay [3] it was less than 5.30; on FGFR4, less than 7.00. Besides, the pIC50 is less than 7.00 at C-MET, less than 5.00 in assay [4], less than 5.00 in [5] and less than 7.00 on EGFR.
For `COc1cc2nccc(Oc3c(F)cc(NC(=O)NC4CC4)c(OC)c3F)c2cc1C(N)=O` [III-40], the pIC50 in [1] was less than 5.00; in assay [2] it was less than 6.00; on VEGFR-2 (KDR), less than 8.00; at FGFR2, less than 7.00; in [3], less than 5.30; at FGFR4 it was less than 7.00. Besides, the pIC50 on C-MET was less than 7.00; in assay [4] it was less than 5.00; in [5], less than 5.00; on EGFR, less than 7.00.
`COc1cc2nccc(Oc3c(F)cc(NC(=O)NC4CCOCC4)c(Cl)c3F)c2cc1C(N)=O` [III-28]: the pIC50 in assay [1] was less than 5.00; in assay [2], less than 6.00; at VEGFR-2 (KDR), less than 8.00; at FGFR2 it was less than 7.00; in assay [3], less than 5.30; on FGFR4, less than 7.00. Moreover, the pIC50 on C-MET is less than 7.00; in assay [4] it was less than 5.00; in assay [5], less than 5.00; on EGFR, less than 7.00.
`COc1cc2nccc(Oc3c(F)cc(NC(=O)N[C@@H](C)CO)c(Cl)c3F)c2cc1C(N)=O` [III-07]: the pIC50 in assay [1] was less than 5.00; in [2], less than 6.00; on VEGFR-2 (KDR), less than 8.00; at FGFR2, less than 7.00; in assay [3], less than 5.30; at FGFR4, less than 7.00. In addition, the pIC50 at C-MET was less than 7.00; in assay [4] it was less than 5.00; in [5], less than 5.00; at EGFR, less than 7.00.
For `COc1cc2nccc(Oc3c(F)cc(NC(=O)NC4CC(O)C4)c(Cl)c3F)c2cc1C(N)=O` (stereo not drawn) [III-29], the pIC50 in assay [1] is less than 5.00; in [2] it was less than 6.00; at VEGFR-2 (KDR) it was less than 8.00; on FGFR2, less than 7.00; in [3], less than 5.30; on FGFR4, less than 7.00. For the same compound, the pIC50 at C-MET was less than 7.00; in assay [4] it was less than 5.00; in assay [5], less than 5.00; at EGFR, less than 7.00.
With `CCC(C)NC(=O)Nc1cc(F)c(Oc2ccnc3cc(OC)c(C(N)=O)cc23)c(F)c1Cl` (stereo not drawn) [III-03], the pIC50 was less than 5.00 in assay [1]; less than 6.00 in assay [2]; less than 8.00 at VEGFR-2 (KDR); less than 7.00 on FGFR2; less than 5.30 in assay [3]; less than 7.00 at FGFR4. Besides, the pIC50 on C-MET is less than 7.00; in assay [4], less than 5.00; in assay [5] it was less than 5.00; on EGFR, less than 7.00.
Regarding `COc1cc2nccc(Oc3c(F)cc(NC(=O)NC4CC4)c(Cl)c3OC3CC3)c2cc1C(N)=O` [III-45], the pIC50 in assay [1] is less than 5.00; in [2], less than 6.00; on VEGFR-2 (KDR), less than 8.00; at FGFR2 it was less than 7.00; in assay [3], less than 5.30; on FGFR4, less than 7.00. In addition, the pIC50 at C-MET was less than 7.00; in [4] it was less than 5.00; in [5] it was less than 5.00; at EGFR, less than 7.00.
For `COc1cc2nccc(Oc3c(F)cc(NC(=O)NCCO)c(Cl)c3F)c2cc1C(N)=O` [III-06], the pIC50 in assay [1] was less than 5.00; in assay [2], less than 6.00; on VEGFR-2 (KDR), less than 8.00; on FGFR2 it was less than 7.00; in assay [3] it was less than 5.30; at FGFR4 it was less than 7.00. The pIC50 at C-MET is less than 7.00; in assay [4], less than 5.00; in assay [5] it was less than 5.00; at EGFR, less than 7.00.
For `COc1cc2nccc(Oc3c(F)cc(NC(=O)NC(C)C)c(Cl)c3F)c2cc1C(N)=O` [III-34], the pIC50 in assay [1] was less than 5.00; in assay [2], less than 6.00; on VEGFR-2 (KDR), less than 8.00; at FGFR2, less than 7.00; in assay [3], less than 5.30; at FGFR4, less than 7.00. For the same compound, the pIC50 is less than 7.00 at C-MET, less than 5.00 in assay [4], less than 5.00 in assay [5] and less than 7.00 on EGFR.
For `COc1cc2nccc(Oc3c(F)cc(NC(=O)NC(C)(C)C)c(Cl)c3F)c2cc1C(N)=O` [III-04], the pIC50 is less than 5.00 in assay [1]; less than 6.00 in assay [2]; less than 8.00 at VEGFR-2 (KDR); less than 7.00 on FGFR2; less than 5.30 in assay [3]; less than 7.00 at FGFR4. The pIC50 at C-MET is less than 7.00; in assay [4], less than 5.00; in assay [5], less than 5.00; at EGFR it was less than 7.00.
Regarding `COc1cc2nccc(Oc3c(F)c(F)c(NC(=O)NC4CC4)c(F)c3F)c2cc1C(N)=O` [III-36], the pIC50 in assay [1] was less than 5.00; in [2] it was less than 6.00; on VEGFR-2 (KDR), less than 8.00; at FGFR2, less than 7.00; in [3], less than 5.30; at FGFR4, less than 7.00. Also, the pIC50 at C-MET is less than 7.00; in assay [4], less than 5.00; in [5] it was less than 5.00; on EGFR it was less than 7.00.
